Assay results reported in US10933079B2, “Oligonucleotide analogues incorporating 5-aza-cytosine therein” (Astex Pharmaceuticals, Inc., priority 2005, dated 2021).

Assays:
[1] = test system: CMV-EE210 cell line containing the epigenetically silenced GFP transgene (CMV promoter); assay: cell-based GFP assay for DNA methylation (reactivation of silenced GFP transgene)
Protocol: The demethylating activity of DpG and GpD di-, tri-, and tetranucleotides were tested in a cell-based GFP (green fluorescent protein) assay. This assay, which is schematically illustrated in FIG. 25, has a GFP gene regulated by the CMV promoter and is sensitive to the methylation of CpG sites within the promoter. A decrease in methylation resulting from exposure to a methylation inhibitor leads to GFP expression and is readily scored. Specifically, the CMV-EE210 cell line containing the epigenetically silenced GFP transgene was used to assay for reactivation of GFP expression by flow cytometry. CMV-EE210 was made by transfecting NIH 3T3 cells with the pTR-UF/UF1/UF2 plasmid (Zolotuhin et al., 1996), which is comprised of pBS(+) (Stratagene, Inc.) containing a cytomegalovirus (CMV) promoter driving a humanized GFP gene adapted for expression in mammalian cells. After transfection, high-level GFP expressing cells were initially selected by FACS analysis and sorting using a MoFlo cytometer (Cytomation, Inc.). Decitabine, potent inhibitor of mammalian DNMT1, was used as a positive control. […] Wells were scored g1 positive if (10%) of viable cells express GFP, g2 positive if 30% of viable cells express GFP and g3 if >75% of the viable cells express GFP. […]

[2] = cited from earlier work

**Q.** For `Nc1ncn([C@H]2C[C@H](O)[C@@H](CO)O2)c(=O)n1` [Decitabine, 5-aza-2′-deoxycytidine], which “GFP Expression Level” value ([1]; CMV-EE210 cells, three days, decitabine at 1 μM, test compound at 30-50 μM, fluorescent microscope scoring) is on record?
**A.** g3 (g3 if >75% of the viable cells express GFP)

**Q.** What about the IC50 ([1]; GFP 50: dose at which the GFP expression level goes from g3 to g1/2, preliminary screening) of the same molecule?
**A.** 500 nM

**Q.** And the total urinary excretion ([2]; humans)?
**A.** less than 1 % of the administered dose

**Q.** And the “penetration into the cerebrospinal fluid” value ([2]; man, end of a 36-hour intravenous infusion)?
**A.** 14-21 % of the plasma concentration
